According to ChEMBL document CHEMBL3792348, “Design, synthesis and structure activity relationship of potent pan-PIM kinase inhibitors derived from the pyridyl carboxamide scaffold” (Bioorg Med Chem Lett, 2016):

Experiments:
[1] = target: Serine/threonine-protein kinase pim-1 (Homo sapiens, UniProt P11309); assay: Inhibition of Pim1 (unknown origin) using BAD peptide preincubated for 15 mins followed by ATP addition measured after 60 to 100 mins by Kinase-Glo reagent based luminescence assay
[2] = target: Serine/threonine-protein kinase pim-2 (Homo sapiens, UniProt Q9P1W9)
Description: Inhibition of Pim2 (unknown origin) using BAD peptide preincubated for 15 mins followed by ATP addition measured after 60 to 100 mins by Kinase-Glo reagent based luminescence assay

[3] = Lipophilicity, logD of the compound; type: physicochemical; details: octanol/water
[4] = Hepatic extraction ratio in human liver microsomes at 1 uM incubated for 30 mins by semi-quantitative LC-MS/MS analysis; type: ADME; details: read-out: ERH
[5] = target: Serine/threonine-protein kinase pim-3 (Homo sapiens, UniProt Q86V86); assay: Inhibition of Pim3 (unknown origin) using BAD peptide preincubated for 15 mins followed by ATP addition measured after 60 to 100 mins by Kinase-Glo reagent based luminescence assay
[6] = Hepatic extraction ratio in rat liver microsomes at 1 uM incubated for 30 mins by semi-quantitative LC-MS/MS analysis; type: ADME; details: read-out: ERH

Serine/threonine-protein kinase pim-1, sequence (P11309 whole entry): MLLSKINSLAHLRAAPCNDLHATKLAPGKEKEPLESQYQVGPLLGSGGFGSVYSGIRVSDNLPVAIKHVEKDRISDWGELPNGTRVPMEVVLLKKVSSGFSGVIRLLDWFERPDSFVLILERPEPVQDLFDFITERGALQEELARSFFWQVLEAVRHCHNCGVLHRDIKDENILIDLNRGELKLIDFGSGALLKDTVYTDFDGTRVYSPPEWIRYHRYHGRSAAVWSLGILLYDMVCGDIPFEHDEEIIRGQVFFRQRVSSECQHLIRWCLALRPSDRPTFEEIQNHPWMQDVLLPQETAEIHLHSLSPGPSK
Serine/threonine-protein kinase pim-2, sequence (Q9P1W9 whole entry): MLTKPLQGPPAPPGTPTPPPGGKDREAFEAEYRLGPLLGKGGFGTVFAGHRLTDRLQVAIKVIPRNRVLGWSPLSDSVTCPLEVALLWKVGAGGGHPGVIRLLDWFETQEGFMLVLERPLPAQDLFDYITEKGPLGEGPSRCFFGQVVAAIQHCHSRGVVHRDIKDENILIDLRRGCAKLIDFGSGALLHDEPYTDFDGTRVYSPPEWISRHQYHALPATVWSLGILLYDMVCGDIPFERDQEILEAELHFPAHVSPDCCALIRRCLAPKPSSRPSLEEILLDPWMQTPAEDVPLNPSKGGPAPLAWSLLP

Ki [1] [nM]	Ki [2] [nM]	logD [3]	hepatic extraction ratio at 0.5 h, 1 µM [4]	Ki [5] [nM]	hepatic extraction ratio at 0.5 h, 1 µM [6]	SMILES
90	> 12500					CC(=O)Nc1nc(C(=O)Nc2ccccc2N2CCCCC2)cs1
< 1	< 3	4.3	0.77	< 3	0.91	Nc1cc(-c2ccncc2NC(=O)c2nc(-c3c(F)cccc3F)ccc2N)nc(C(F)(F)F)n1
< 1	35			3		Nc1cc(-c2ccncc2NC(=O)c2nc(-c3ccccc3F)ccc2N)ccn1
3	94			6		Nc1cncc(-c2ccncc2NC(=O)c2nc(-c3ccccc3F)ccc2N)n1
28	187			36		Nc1ccc(-c2c(F)cccc2F)nc1C(=O)Nc1cnccc1-c1cccnc1N
< 1	< 3		0.87	< 3	0.89	Nc1cc(-c2ccncc2NC(=O)c2nc(-c3nccs3)ccc2N)nc(C(F)(F)F)n1
< 1	4		0.95	< 3	0.95	Cc1cc(-c2ccncc2NC(=O)c2nc(-c3ccccc3F)ccc2N)cc(N)n1
17	120			15		Nc1cc(-c2ccncc2NC(=O)c2nc(-c3ccccc3F)ccc2N)nc(N)n1
< 1	9		0.64	< 3	0.81	Cc1cc(-c2ccncc2NC(=O)c2nc(-c3nccs3)ccc2N)nc(N)n1
< 1	< 3		0.58	< 3	0.8	Cc1cc(-c2ccncc2NC(=O)c2nc(-c3ccccc3F)ccc2N)nc(N)n1
< 1	< 3		0.96	< 3	0.94	Cc1cc(-c2ccncc2NC(=O)c2nc(-c3c(F)cccc3F)ccc2N)cc(N)n1
4	27			5		Nc1cc(-c2ccncc2NC(=O)c2nc(-c3c(F)cccc3F)ccc2N)ncn1
6	50			5		Nc1nccc(-c2ccncc2NC(=O)c2nc(-c3c(F)cccc3F)ccc2N)n1
8	317			21		Nc1ccc(-c2ccccc2F)nc1C(=O)Nc1cnccc1-c1ccncc1
4	158			12		Nc1ccc(-c2ccncc2NC(=O)c2nc(-c3ccccc3F)ccc2N)cn1
2	8			< 3		Nc1cc(-c2ccncc2NC(=O)c2nc(-c3c(F)cccc3F)ccc2N)ccn1
< 1	< 3		0.82	< 3	0.82	Cc1nc(N)cc(-c2ccncc2NC(=O)c2nc(-c3c(F)cccc3F)ccc2N)n1
< 1	4			< 3		COc1cc(-c2ccncc2NC(=O)c2nc(-c3c(F)cccc3F)ccc2N)cc(N)n1
